Our source for the TGI values is PubChem BioAssay (NCI).

Holding throughout (assay): NCI-60 cell line screen, 48 h
Assay [1] concerns NCI-H23 lung.
The test system of assay [2] is M14 melanoma.
The subject of assay [3] is SF-295 CNS.
Assay [4] relates to T-47D breast.
Assay [5] deals with MDA-N.
In assay [6] the test system is KM12 colon.
Assay [7] has as its system SN12C renal.
The test system of assay [8] is DU-145 prostate.
Assay [9] deals with UACC-257 melanoma.
The subject of assay [10] is SK-MEL-2 melanoma.
Assay [11] relates to HOP-62 NSCLC.
Assay [12] concerns RPMI-8226 leukemia.
The test system of assay [13] is 786-0 renal.
The subject of assay [14] is UO-31 renal.
Assay [15] relates to MDA-MB-231 breast.
In assay [16] the test system is OVCAR-4 ovarian.
Assay [17] relates to PC-3 prostate.
Assay [18] relates to UACC-62 melanoma.
Assay [19] has as its system NCI-H522 lung.
Assay [20] relates to SR leukemia.

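Values below derive from 48-hour exposures of cells grown in 96-well plates, with endpoints linearly interpolated between the two concentrations bracketing the appropriate inhibition level. The concentration for full growth arrest is given as TGI.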

`COc1ccc(/C=N/NS(=O)(=O)c2ccc(/C=C3\NC(=O)NC3=O)cc2)cc1`: the TGI in assay [1], in assay [2], in [3], in [4], in [5] and in assay [6] was more than 100 µM throughout. Moreover, the TGI in assay [7], in [8], in assay [9], in [10], in assay [11] and in assay [12] was more than 100 µM each time. Besides, the TGI in assay [13], in assay [14], in [15], in [16], in assay [17] and in assay [18] was more than 100 µM in each case.
For `CC(=O)OC[C@@]1(C)[C@@H]2[C@@H]3[C@@]4(CO[C@]3(C)C(=O)[C@@]3(OC(C)=O)C[C@H](C)[C@H](OC(C)=O)[C@@H]3[C@H]4OC(C)=O)[C@H](OC(=O)c3ccccc3)C[C@@H]21`, the TGI in assay [19], in assay [1], in [2], in assay [3], in assay [4] and in [5] was more than 100 µM in each case. Also, the TGI in assay [6], in assay [7], in assay [8], in assay [9], in assay [10] and in assay [11] was more than 100 µM throughout. Moreover, the TGI in assay [12], in [13], in assay [14], in [15], in [16] and in assay [17] was more than 100 µM in each case. This compound also yielded a TGI in assay [18] of more than 100 µM.
Turning to `O=[N+]([O-])c1ccc(C2=NOC(c3ccccc3)N2C23CC4CC(CC(C4)C2)C3)cc1` (stereo not drawn), the TGI in assay [19] is 35.3 µM; in assay [1] it was more than 100 µM; in [2], 88.4 µM; in assay [3] it was 66.6 µM; in assay [4], more than 100 µM; in assay [5], 58 µM. Besides, the TGI in assay [6] is 71.9 µM; in assay [7] it was more than 100 µM; in [8], 95 µM; in assay [9], more than 100 µM; in assay [10], 37.5 µM; in assay [11], 80.2 µM. In addition, the TGI in assay [13] was 57.9 µM; in assay [14], 67.3 µM; in assay [15], more than 100 µM; in [16], more than 100 µM; in assay [17] it was 43.8 µM; in assay [18] it was 85.8 µM.
For `COc1ccc(NC(=O)CSc2nc(C)nc3c2sc(=S)n3-c2ccccc2)cc1`, the TGI in assay [19], in [1], in [2], in assay [3], in [4] and in [5] was more than 10 µM throughout. For the same compound, the TGI in assay [6], in assay [7], in [8], in assay [9], in [11] and in assay [12] was more than 10 µM throughout. The TGI was more than 10 µM in assay [13]; more than 10 µM in assay [20]; more than 10 µM in assay [15]; 9.29 µM in assay [16]; more than 10 µM in assay [17]; more than 10 µM in assay [18].
As to `COC(=O)c1ccccc1/C=C1\Cc2ccc3c(c2C1=O)CCC3`, the TGI in assay [19], in [1], in [3], in assay [4], in assay [5] and in assay [6] was more than 100 µM each time. Moreover, the TGI in assay [7], in assay [8], in assay [9], in [11], in assay [12] and in [13] was more than 100 µM in each case. Moreover, the TGI in [20], in [14], in [15], in [16], in [17] and in assay [18] was more than 100 µM throughout.
Turning to `COC(=O)C(Cc1c(-c2[nH]c3ccccc3c2CC(NC(C)=O)C(=O)OC)[nH]c2ccccc12)NC(C)=O` (stereo not drawn), the TGI in assay [19], in [1], in assay [2], in [3], in [4] and in assay [5] was more than 100 µM in each case. Besides, the TGI in [6], in [7], in [8], in [9], in assay [10] and in assay [11] was more than 100 µM throughout. The TGI in assay [12], in [13], in assay [14], in assay [15], in assay [17] and in [18] was more than 100 µM each time.
`C=C1[C@@H](OC(C)=O)/C=C/C2C3C(=O)[C@@](C)(OC(C)=O)[C@H]([C@H](OC(C)=O)[C@]4(O)[C@@H](C)C(=O)O[C@H]4[C@H]1Cl)[C@@]23C` (stereo partly drawn): the TGI in assay [19], in assay [1], in assay [2], in assay [3], in assay [4] and in assay [5] was more than 100 µM throughout. Moreover, the TGI in [6], in assay [7], in assay [8], in assay [9], in assay [10] and in assay [11] was more than 100 µM throughout. The TGI in [12], in [13], in assay [14], in [15], in assay [16] and in assay [17] was more than 100 µM each time. In addition, the TGI in assay [18] is more than 100 µM.
